From article PMC7997579, “Synthetic Lethality in Pancreatic Cancer: Discovery of a New RAD51-BRCA2 Small Molecule Disruptor That Inhibits Homologous Recombination and Synergizes with Olaparib” (Journal of Medicinal Chemistry, 2020) come the findings set out here.

Where two headings read alike, the source gives them in different places.

The target in one series is T1, BRC4–RAD51 interaction (Homo sapiens, UniProt Q06609).
T1 construct: purchased Creative Biomart (RAD51); Life Technologies (BRC4 peptide)
T1 sequence (Q06609 1-339): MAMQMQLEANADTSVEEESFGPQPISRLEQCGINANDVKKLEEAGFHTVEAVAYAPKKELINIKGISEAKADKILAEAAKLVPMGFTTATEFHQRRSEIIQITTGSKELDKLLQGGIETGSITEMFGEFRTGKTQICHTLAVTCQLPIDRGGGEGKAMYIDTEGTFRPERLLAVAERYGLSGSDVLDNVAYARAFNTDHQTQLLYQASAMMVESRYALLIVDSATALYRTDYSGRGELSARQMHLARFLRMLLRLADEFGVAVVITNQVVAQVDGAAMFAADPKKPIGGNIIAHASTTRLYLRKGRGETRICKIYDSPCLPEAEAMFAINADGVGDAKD
Put plainly: Competitive biochemical ELISA assay (biotinylated BRC4 peptide vs RAD51). In kind it is binding. Here is the method:
To investigate the mechanism of action of the new dihydroquinolone pyrazoline derivatives, different biological assays were performed. As a primary screening, the ability of compounds 5d–57d to inhibit RAD51-BRCA2 interaction was investigated with a competitive biochemical ELISA assay against the parent compound 4d (Table 1). This assay is effective in evaluating the ability of new molecules to compete with BRC4 to bind to RAD51.[30] […] 18d–21d, 23d, 25d, 30d, and 31d were active at micromolar range, all very similar to the initial hit. […] The replacement of the aromatic ring A in combination with the substitution of the pyrazoline nitrogen with either propionyl or acetyl chain yielded compounds 33d–51d. […] As expected for PPI disruptors, the SARs of the new series of dihydroquinolone pyrazoline were rather complex to rationalize, with many cliffs and spikes that were difficult to understand. […] Accordingly, 4d, 12d, 18d, 20d–23d, 30d, 31d, 33d–36d, 39d, 45d, and 49d were submitted to cell-based study (Table 2).
Competitive ELISA screening assay using biotinylated BRC4 peptide to disrupt the BRC4–RAD51 interaction was performed by modifying the method described by Rajendra et al.[33] BRC4-biotinylated peptide (N-term biotin-[…] from Life Technologies) was used to coat 384-well plates (Nunc). After washing with PBS containing 0.05% Tween-20 (PBST) and blocking with the solution BSA 1% /PBST, overnight hybridization with human RAD51 protein (NP_002866 Creative Biomart, NY) was performed. Test compounds were added in dose response from 0.01 to 100 μM in triplicate with constant DMSO 1%. Antibody raised against RAD51 (Millipore) and HRP-secondary antibody staining to develop the 3,3′,5,5′-tetramethylbenzidine signal (Sigma) quenched with 1 M HCl was used as the assay readout. Colorimetric measure was read on a Victor5 (PerkinElmer) plate reader. BRC4 and Rad51 were included in the assay as positive control. Results were analyzed by using GraphPad software.

The test system of series [1] is homologous recombination in BxPC3 cells. Put plainly: Homologous recombination assay (two-plasmid recombination, real-time PCR). The following applies: for HR inhibition (in words): BxPC3, one or two doses in the range of the ELISA EC50, NDD = not dose-dependent. In kind it is cell-based, human. An excerpt:
(§1) Our working hypothesis is that compounds disrupting RAD51-BRCA2 interaction should affect HR repair and increase the efficacy of PARPi in treating breast, ovarian, and pancreatic cancer. For its clinical relevance, pancreatic adenocarcinoma was selected as our final model for cell-based experiments, and BxPC3 cells were selected for a straightforward comparison with the previously reported triazole derivatives.[30],[31] BxPC3 is derived from a human adenocarcinoma that expresses fully functional BRCA2.[38] As shown in Table 2 and according to the rationale of our hypothesis, our preliminary screening consisted of verifying the efficacy of compounds in inhibiting cell HR and/or in increasing the antiproliferative effect of olaparib. […] HR activity was assessed by evaluating the recombination rate between two transfected plasmids, using a commercially available assay. […] As for the emissucinic acid-containing compounds (4d, 12d, 18d, 20d–23d, 30d, 31d), one of the reasons for their lower potency in cells might be the general poor permeability, likely related to the ionizable acid moiety. […] We then characterized 35d in additional biophysical and cell-based experiments.
Homologous recombination (HR) was assessed by using a commercially available assay (Norgen). This assay is based on cell transfection with two plasmids that, upon cell entry, recombine. The efficiency of HR can be assessed by real-time PCR, using primer mixtures included in the assay kit. Different primer mixtures allow one to discriminate between the original plasmid backbones and their recombination product.
BxPC3 cells (2 × 10^5 per well) were seeded in a 24-well plate and allowed to adhere overnight. Co-transfection with the two plasmids was performed in Lipofectamine 2000 (Invitrogen) according to the manufacturer’s instructions. During transfection (5 h), cells were exposed to different doses of RAD51-BRCA2 disruptors, dissolved in RPMI in the presence of 0.6% DMSO. After washing with PBS, cells were harvested, and DNA was isolated using Illustra Tissue and Cell Genomic Prep Mini Spin kit (GE Healthcare). Sample concentration was measured using an ONDA Nano Genius photometer. The efficiency of HR was assessed by real-time PCR, using 25 ng of template, the primer mixtures included in the assay kit and following the protocol indicated by the manufacturer. Data analysis was based on the ΔΔCt method: [recombination product/backbone plasmids]^treated versus [recombination product/backbone plasmids]^control.

Another series deals with BxPC3 cells. The experiment in a line: Cell viability assay (CellTiter-Glo), association with olaparib. In kind it is cell-based, human. The following applies: BxPC3; for olaparib association (increase of antiproliferative effect of olaparib): one or two doses in the range of the ELISA EC50, concentration not given.
From the text: as §1
Cell viability was assessed with the CellTiter-Glo luminescent cell viability assay from Promega. For this experiment, 1 × 10^4 cells in 200 μL of culture medium were seeded into each well of a 96-multiwell white body plate and allowed to adhere overnight. After 72 h incubation in the presence of olaparib (10 μM) and the RAD51-BRCA2 disruptors alone or in combination, the plate was allowed to equilibrate at room temperature for 30 min and the CellTiter-Glo reactive was directly added to each well. The plate was kept on a shaker for 10 min to induce cell lysis, and its luminescence was measured with a Fluoroskan Ascent FL reader (Labsystems).

Series [2] can be described thus: Solubility (as observed in cell culture media / stated). In kind it is physicochemical. To be noted: cell culture media.
Where [3] appears, read: Table 2, compounds selected for cell-based study, read-out: EC50 ELISA.
[4] abbreviates: competition with BRC4 for RAD51, triplicate, ± standard deviation, NA = not active, racemic mixtures unless enantiomer named, read-out: EC50 (μM) on ELISA assay.

Take `O=C(O)CCC(=O)N1N=C(c2c(-c3ccccc3)c3cc(Cl)ccc3[nH]c2=O)CC1c1ccc(Br)cc1` (stereo not drawn) [Compound 12d, 4-(5-(4-Bromophenyl)-3-(6-chloro-2-oxo-4-phenyl-1,2-dihydroquinolin-3-yl)-4,5-dihydro-1H-pyrazol-1-yl)-4-oxobutanoic Acid]: the EC50 at BRC4–RAD51 interaction (setting [3]) and on BRC4–RAD51 interaction (setting [4]) was 16 ± 2 µM throughout. The “HR inhibition (in words)” value in series [1] is listed as “HR inhibition = not present”. Moreover, in the series on BxPC3 cells, the “olaparib association (increase of antiproliferative effect of olaparib)” value was “olaparib association = not present”.
For `O=C(O)CCC(=O)N1N=C(c2c(-c3ccccc3)c3cc(Cl)ccc3[nH]c2=O)CC1c1ccc(-c2ccc(F)cc2)cc1` (stereo not drawn) [Compound 18d, 4-(3-(6-Chloro-2-oxo-4-phenyl-1,2-dihydroquinolin-3-yl)-5-(4′-fluoro-[1,1′-biphenyl]-4-yl)-4,5-dihydro-1H-pyrazol-1-yl)-4-oxobutanoic Acid], the EC50 on BRC4–RAD51 interaction (setting [3]) and on BRC4–RAD51 interaction (setting [4]) was 13 ± 1 µM each time. Also, the “olaparib association (increase of antiproliferative effect of olaparib)” value in the series with BxPC3 cells is “olaparib association = not present”.
In the case of `O=C(O)CCC(=O)N1N=C(c2c(-c3ccccc3)c3cc(Cl)ccc3[nH]c2=O)CC1c1ccc(-c2ccc(Br)cc2)cc1` (stereo not drawn) [Compound 20d], the EC50 on BRC4–RAD51 interaction (setting [3]) and on BRC4–RAD51 interaction (setting [4]) was 20 ± 2 µM throughout. Also, the “olaparib association (increase of antiproliferative effect of olaparib)” value with BxPC3 cells is on record as “olaparib association = not present”.
For `COc1ccc(-c2ccc(C3CC(c4c(-c5ccccc5)c5cc(Cl)ccc5[nH]c4=O)=NN3C(=O)CCC(=O)O)cc2)cc1` (stereo not drawn) [Compound 21d, 4-(3-(6-Chloro-2-oxo-4-phenyl-1,2-dihydroquinolin-3-yl)-5-(4′-methoxy-[1,1′-biphenyl]-4-yl)-4,5-dihydro-1H-pyrazol-1-yl)-4-oxobutanoic Acid], the EC50 at BRC4–RAD51 interaction (setting [3]) and on BRC4–RAD51 interaction (setting [4]) was 20 ± 4 µM throughout. Moreover, in series [2], the “solubility in cell culture media” value is recorded as “poor solubility”.
As to `Cn1ccc2cc(C3CC(c4c(-c5ccccc5)c5cc(Cl)ccc5[nH]c4=O)=NN3C(=O)CCC(=O)O)ccc21` (stereo not drawn) [Compound 22d, 4-(3-(6-Chloro-2-oxo-4-phenyl-1,2-dihydroquinolin-3-yl)-5-(1-methyl-1H-indol-5-yl)-4,5-dihydro-1H-pyrazol-1-yl)-4-oxobutanoic Acid], the concentration for a half-maximal effect (EC50) at BRC4–RAD51 interaction (setting [3]) and on BRC4–RAD51 interaction (setting [4]) was 2 ± 0.5 µM each time. Moreover, in series [1], the “HR inhibition (in words)” value is listed as “HR inhibition = not present”. Also, the olaparib association result with BxPC3 cells (at 5 μM) is recorded as “olaparib association = not present at 5 μM”.
Take `CCn1ccc2cc(C3CC(c4c(-c5ccccc5)c5cc(Cl)ccc5[nH]c4=O)=NN3C(=O)CCC(=O)O)ccc21` (stereo not drawn) [Compound 23d, 4-(3-(6-Chloro-2-oxo-4-phenyl-1,2-dihydroquinolin-3-yl)-5-(1-ethyl-1H-indol-5-yl)-4,5-dihydro-1H-pyrazol-1-yl)-4-oxobutanoic Acid]: the EC50 on BRC4–RAD51 interaction (setting [3]) and at BRC4–RAD51 interaction (setting [4]) was 10 ± 2 µM each time. Besides, the “olaparib association (increase of antiproliferative effect of olaparib)” value in the series on BxPC3 cells is “olaparib association = not present”.
On to `CCn1cc2cc(-c3ccc(C4CC(c5c(-c6ccccc6)c6cc(Cl)ccc6[nH]c5=O)=NN4C(=O)CCC(=O)O)cc3)ccc2n1` (stereo not drawn) [Compound 31d, 4-(3-(6-Chloro-2-oxo-4-phenyl-1,2-dihydroquinolin-3-yl)-5-(4-(2-ethyl-2H-indazol-5-yl)phenyl)-4,5-dihydro-1H-pyrazol-1-yl)-4-oxobutanoic Acid], for which the EC50 on BRC4–RAD51 interaction (setting [3]) and at BRC4–RAD51 interaction (setting [4]) was 17 ± 4 µM each time. In addition, the “HR inhibition (in words)” value in series [1] is “HR inhibition = NDD ^b”. Besides, the olaparib association result in the series with BxPC3 cells (at 20 μM) is recorded as “olaparib association = present at 20 μM”.
With `CCC(=O)N1N=C(c2c(-c3ccccc3)c3cc(Cl)ccc3[nH]c2=O)CC1c1ccc(Cl)cc1` (stereo not drawn) [Compound 33d, 6-Chloro-3-(5-(4-chlorophenyl)-1-propionyl-4,5-dihydro-1H-pyrazol-3-yl)-4-phenylquinolin-2(1H)-one], the EC50 on BRC4–RAD51 interaction (setting [3]) and at BRC4–RAD51 interaction (setting [4]) was 8 ± 2 µM each time. For the same compound, in series [1], the “HR inhibition (in words)” value is reported as “HR inhibition = not present”. For the same compound, the “olaparib association (increase of antiproliferative effect of olaparib)” value in the series on BxPC3 cells was “olaparib association = not present”.
Regarding `CC(=O)N1N=C(c2c(-c3ccccc3)c3cc(Cl)ccc3[nH]c2=O)CC1c1ccc(Cl)cc1` (stereo not drawn) [Compound 36d, 3-(1-Acetyl-5-(4-chlorophenyl)-4,5-dihydro-1H-pyrazol-3-yl)-6-chloro-4-phenylquinolin-2(1H)-one], the EC50 on BRC4–RAD51 interaction (setting [3]) and on BRC4–RAD51 interaction (setting [4]) was 10 ± 0.7 µM in each case. Besides, in series [1] (Homo sapiens, BXPC-3, 10 μM, BxPC3, 5 h during plasmid transfection), the inhibition at 10 µM was determined as 24%. The “olaparib association (increase of antiproliferative effect of olaparib)” value in the series on BxPC3 cells is recorded as “olaparib association = not present”.
Regarding `CC(=O)N1N=C(c2c(-c3ccccc3)c3cc(Cl)ccc3[nH]c2=O)CC1c1ccc(C(C)(C)C)cc1` (stereo not drawn) [Compound 39d, 3-(1-Acetyl-5-(4-(tert-butyl)phenyl)-4,5-dihydro-1H-pyrazol-3-yl)-6-chloro-4-phenylquinolin-2(1H)-one], the EC50 on BRC4–RAD51 interaction (setting [3]) and at BRC4–RAD51 interaction (setting [4]) was 15 ± 4 µM throughout. Also, the “HR inhibition (in words)” value in series [1] is on record as “HR inhibition = NDD ^b”.
In the case of `CC(=O)N1N=C(c2c(-c3ccccc3)c3cc(Cl)ccc3[nH]c2=O)CC1c1ccc2c(ccn2C)c1` (stereo not drawn) [Compound 45d, 3-(1-Acetyl-5-(1-methyl-1H-indol-5-yl)-4,5-dihydro-1H-pyrazol-3-yl)-6-chloro-4-phenylquinolin-2(1H)-one], the EC50 on BRC4–RAD51 interaction (setting [3]) and at BRC4–RAD51 interaction (setting [4]) was 18 ± 1 µM each time. For the same compound, in series [1], the “HR inhibition (in words)” value is “HR inhibition = not present”.
Regarding `CCCn1ncc2cc(C3CC(c4c(-c5ccccc5)c5cc(Cl)ccc5[nH]c4=O)=NN3C(C)=O)ccc21` (stereo not drawn) [Compound 49d, 3-(1-Acetyl-5-(1-propyl-1H-indazol-5-yl)-4,5-dihydro-1H-pyrazol-3-yl)-6-chloro-4-phenylquinolin-2(1H)-one], the EC50 at BRC4–RAD51 interaction (setting [3]) and on BRC4–RAD51 interaction (setting [4]) was 0.95 ± 0.05 µM throughout. For the same compound, in series [1], the “HR inhibition (in words)” value is “HR inhibition = not present”. Besides, the “olaparib association (increase of antiproliferative effect of olaparib)” value in the series with BxPC3 cells is reported as “olaparib association = not present”.
